# Publication PMC3095640, “Potent Host-Directed Small-Molecule Inhibitors of Myxovirus RNA-Dependent RNA-Polymerases” (PLoS ONE, 2011)
# Where two headings read alike, the source gives them in different places.
# Columns and labels:
# MeV-Alaska [1] = experiment: In vitro virus adaptation (resistance induction); format: cell-based, measles virus; conditions: after 90 days of continued viral incubation
# Description: Adaptations were carried out essentially as we have previously described. Briefly, Vero-SLAM cells were infected with MeV-Alaska at an MOI of […] and incubated in the presence of gradually increasing JMN3-003 concentrations starting at 0.5 µM. Equally infected cells treated with the virus polymerase targeted RdRp inhibitor AS-136A were examined in parallel. When cultures became over confluent, cells were reseeded for continued incubation in the presence of the same compound concentration as before. At detection of extensive cell-to-cell fusion, cell-associated viral particles were harvested, diluted 10-fold and used for parallel infections of fresh cell monolayers in the presence of compound at unchanged and doubled concentrations. Cultures treated with the highest compound concentrations in which virus-induced cytopathicity became detectable were used for further adaptation. The approach was terminated after 90 days of continued incubation or when virus-induced cytopathicity was readily detectable in the presence of 30 µM compound in accordance with previous results.
# HeLa cells = experiment: Flow-cytometric analysis of cell cycle progression; format: cell-based, human; conditions: JMN3-003 10 µM 36 hours, nocodazole 200 ng/ml
# Description: Actively proliferating HeLa cells were exposed to JMN3-003 (10 µM), hydroxyurea (4 mM), or nocodazole (200 ng/ml) for 36 hours, followed by resuspension in buffer I (20 mM citrate/PO, pH 3.0, 0.1 mM EDTA, 0.2 M Sucrose, 0.1% Triton X-100) and staining in buffer II (10 mM Citrate/PO, pH 3.8, 0.1 M sodium chloride, 20 µg/ml acridine orange) as described. Green fluorescence at 525 nm resulting from DNA intercalating acridine orange was then measured using a BD LSRII flow cytometer and FlowJo software (Tree Star) for data analysis. For comparison, unstained and stained, solvent-only exposed cells were examined in parallel.
# Influenza A/WSN [2] = experiment: Quantitation of influenza A/WSN antigenome and released progeny genome copies; format: cell-based; conditions: MDCK cells, 24 hours
# PBMCs = experiment: Metabolic activity of primary human PBMCs; format: cell-based; conditions: 24 hours exposure
# Description: (§1) A non-radioactive cytotoxicity assay (CytoTox 96 Non-Radioactive Cytotoxicity Assay, Promega) was employed to determine the metabolic activity of cell after exposure to the compound. In a 96-well plate format, 10,000 cells per well were incubated at 37°C for 24 hours in four replicates per concentration tested in the presence of compound in two-fold dilutions starting at 75 µM. Substrate was then added and color development measured at 490 nm using a BioRad plate reader. Values were calculated according to the formula [% toxicity = 100−((experimental-background)/(maximum(vehicle treated)-background)*100)]. Values were plotted in dose-response curves and, if applicable, CC50 concentrations calculated.
# [3] = Cytotoxicity (metabolic activity), HT1080; format: cell-based; conditions: human, HT1080 cells, highest concentration assessed 75 µM
# Description: as §1
# [4] = Cytotoxicity (metabolic activity), NIH-3T3; format: cell-based, Rodent-mouse; conditions: mouse, NIH-3T3 cells, highest concentration assessed 75 µM
# Description: as §1
# vaccinia virus = format: cell-based; conditions: compared with activity against myxoviruses
# [5] = test system: para- and orthomyxovirus family members; experiment: organism not typed; format: cell-based
# MeV-Alaska [6] = experiment: Immunodetection of virus-encoded MeV-F; format: cell-based, measles virus; conditions: 100 nM
# [7] = Cytotoxicity (metabolic activity), MEL B16; format: cell-based, Rodent-mouse; conditions: mouse, MEL B16 cells, highest concentration assessed 75 µM
# Description: as §1
# MeV RdRp = MeV RdRp (Measles morbillivirus (Measles virus), UniProt P12576); experiment: MeV minireplicon luciferase reporter assay; format: cell-based; conditions: BHK-T7 cells, 36 hours
# Description: BSR T7/5 cells (5×10^5/well) were transfected with plasmid DNAs encoding MeV-L (0.24 µg), MeV-N (0.94 µg) or MeV-P (0.29 µg) and 2 µg of the MeV luciferase minigenome reporter plasmid. Control wells included identical amounts of reporter and helper plasmids but lacked the L-encoding plasmid. At the time of transfection, JMN3-003 was added as specified, while control wells received vehicle only for comparison. Thirty-six hours post-transfection, cells were lysed with Bright GLO lysis buffer and relative luciferase activities determined using the Britelite substrate and a luminescence counter as outlined above.
# MeV-Alaska [8] = experiment: Cell priming: pre-treatment, wash-out, then MeV-Alaska infection; format: cell-based, measles virus; conditions: 1.0 µM for 60 minutes
# MeV (Alaska) = experiment: microbe, parasite or virus in culture; format: cell-based, measles virus isolate MVi/Alaska.USA/16.00; conditions: Measles morbillivirus
# RSV (Long) = experiment: microbe, parasite or virus in culture; format: cell-based, respiratory syncytial virus strain Long; conditions: human respiratory syncytial virus; titered through plaque assaying
# Influenza A/WSN [9] = experiment: Immunodetection of virus-encoded influenza A/WSN M2; format: cell-based; conditions: 100 nM
# Description: Aliquots with equal total concentrations of cleared lysates (20,000×g; 10 min; 4°C) were mixed with 2x-urea buffer (200 mM Tris, pH 6.8; 8 M urea; 5% sodium dodecyl sulfate (SDS); 0.1 mM EDTA; 0.03% bromphenol blue; 1.5% dithiothreitol) and denatured for 25 min at 50°C. Samples were then fractionated on 10% SDS-polyacrylamide gels, blotted to polyvinylidene difluoride (PVDF) membranes (Millipore) and subjected to enhanced chemiluminescence detection (Pierce) using specific antisera directed against phosphorylated or non-phosphorylated cdc2-cyclin B kinase (Cell Signaling Technology), GAPDH (Abcam), the cytosolic tail of the MeV F protein [81], or influenza A/WSN virus M2 (Thermo Scientific). Immunostained PVDF membranes were developed using a ChemiDoc XRS digital imaging system (Bio-Rad) and horseradish peroxidase conjugated anti-species IgG (mouse or rabbit) antibodies. For densitometry, signals were quantified using the QuantityOne software package (Bio-Rad).
# [10] = Cytotoxicity (metabolic activity), Vero-Slam cells; format: cell-based; conditions: African green monkey, highest concentration assessed 75 µM, read-out: CC50, Toxicity, Metabolic activity
# Description: as §1
# MeV-Alaska [11] = experiment: Post-infection time-of-addition assay; format: cell-based, measles virus; conditions: 1.0 µM added at times post-infection
# MeV RdRp, sequence (P12576 whole entry, change not shown): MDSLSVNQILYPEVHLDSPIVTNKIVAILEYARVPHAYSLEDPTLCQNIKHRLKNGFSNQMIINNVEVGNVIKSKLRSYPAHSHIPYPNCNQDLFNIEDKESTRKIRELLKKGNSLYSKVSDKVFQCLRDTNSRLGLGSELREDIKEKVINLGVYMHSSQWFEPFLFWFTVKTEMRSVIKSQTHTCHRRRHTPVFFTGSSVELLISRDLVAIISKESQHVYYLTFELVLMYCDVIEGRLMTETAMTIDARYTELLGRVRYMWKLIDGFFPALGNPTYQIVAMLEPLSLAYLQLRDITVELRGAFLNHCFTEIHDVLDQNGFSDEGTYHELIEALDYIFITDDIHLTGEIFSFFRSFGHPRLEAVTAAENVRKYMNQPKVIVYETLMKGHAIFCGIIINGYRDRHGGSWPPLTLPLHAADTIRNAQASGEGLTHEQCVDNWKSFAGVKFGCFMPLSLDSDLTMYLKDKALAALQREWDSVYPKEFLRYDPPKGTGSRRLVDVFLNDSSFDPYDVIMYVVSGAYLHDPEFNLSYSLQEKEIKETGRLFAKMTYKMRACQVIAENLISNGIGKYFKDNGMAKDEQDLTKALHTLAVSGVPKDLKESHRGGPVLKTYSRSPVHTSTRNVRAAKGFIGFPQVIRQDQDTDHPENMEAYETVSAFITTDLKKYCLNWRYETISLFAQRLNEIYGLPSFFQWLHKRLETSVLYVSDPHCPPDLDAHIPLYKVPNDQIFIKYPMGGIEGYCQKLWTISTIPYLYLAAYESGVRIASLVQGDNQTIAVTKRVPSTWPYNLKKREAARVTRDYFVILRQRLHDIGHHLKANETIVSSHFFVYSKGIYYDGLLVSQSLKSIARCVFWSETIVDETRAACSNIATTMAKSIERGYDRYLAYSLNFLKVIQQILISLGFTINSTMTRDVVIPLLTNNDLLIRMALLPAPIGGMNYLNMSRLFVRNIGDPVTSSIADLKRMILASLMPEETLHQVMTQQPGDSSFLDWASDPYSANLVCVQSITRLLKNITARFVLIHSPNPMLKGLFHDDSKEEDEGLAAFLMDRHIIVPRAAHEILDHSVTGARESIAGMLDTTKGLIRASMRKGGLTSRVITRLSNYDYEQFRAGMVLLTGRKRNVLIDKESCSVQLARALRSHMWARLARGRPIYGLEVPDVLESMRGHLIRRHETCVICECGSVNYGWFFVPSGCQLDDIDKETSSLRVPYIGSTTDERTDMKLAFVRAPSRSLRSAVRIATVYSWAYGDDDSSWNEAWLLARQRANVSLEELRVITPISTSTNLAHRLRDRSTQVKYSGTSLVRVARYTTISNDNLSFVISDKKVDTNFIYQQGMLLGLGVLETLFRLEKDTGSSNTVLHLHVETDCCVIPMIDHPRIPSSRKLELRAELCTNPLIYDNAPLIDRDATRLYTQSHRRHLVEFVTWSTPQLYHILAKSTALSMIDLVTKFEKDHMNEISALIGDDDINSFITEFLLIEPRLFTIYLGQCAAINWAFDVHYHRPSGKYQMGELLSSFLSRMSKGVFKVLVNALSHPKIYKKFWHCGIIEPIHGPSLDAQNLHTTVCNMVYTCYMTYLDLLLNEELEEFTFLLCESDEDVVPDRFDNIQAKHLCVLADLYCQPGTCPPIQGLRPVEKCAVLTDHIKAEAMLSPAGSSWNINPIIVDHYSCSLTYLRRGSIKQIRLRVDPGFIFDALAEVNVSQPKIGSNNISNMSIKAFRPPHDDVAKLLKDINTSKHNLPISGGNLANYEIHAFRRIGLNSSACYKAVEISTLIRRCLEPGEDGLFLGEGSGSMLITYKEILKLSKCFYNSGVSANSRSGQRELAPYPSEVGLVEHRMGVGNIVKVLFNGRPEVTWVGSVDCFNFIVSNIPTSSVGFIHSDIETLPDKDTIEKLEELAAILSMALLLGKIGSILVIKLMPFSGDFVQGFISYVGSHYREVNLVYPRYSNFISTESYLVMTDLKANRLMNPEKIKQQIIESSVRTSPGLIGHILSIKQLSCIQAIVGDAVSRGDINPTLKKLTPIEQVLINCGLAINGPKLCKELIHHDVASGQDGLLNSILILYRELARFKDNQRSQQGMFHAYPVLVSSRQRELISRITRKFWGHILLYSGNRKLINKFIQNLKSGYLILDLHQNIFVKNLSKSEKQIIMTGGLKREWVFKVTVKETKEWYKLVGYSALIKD
# MeV RdRp, sequence (P03422 whole entry partner): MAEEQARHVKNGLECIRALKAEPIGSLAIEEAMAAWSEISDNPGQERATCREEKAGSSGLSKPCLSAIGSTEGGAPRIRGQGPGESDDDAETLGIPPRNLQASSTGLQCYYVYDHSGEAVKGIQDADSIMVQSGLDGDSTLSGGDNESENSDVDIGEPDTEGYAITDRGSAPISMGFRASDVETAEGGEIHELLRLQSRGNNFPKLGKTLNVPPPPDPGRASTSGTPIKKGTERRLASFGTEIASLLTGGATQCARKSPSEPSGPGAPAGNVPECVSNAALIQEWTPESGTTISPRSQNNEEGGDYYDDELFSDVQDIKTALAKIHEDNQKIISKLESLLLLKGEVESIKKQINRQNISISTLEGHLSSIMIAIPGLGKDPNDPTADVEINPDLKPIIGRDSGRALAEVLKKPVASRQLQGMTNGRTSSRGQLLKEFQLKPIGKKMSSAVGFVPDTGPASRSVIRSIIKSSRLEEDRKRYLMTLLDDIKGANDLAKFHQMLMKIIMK
# MeV RdRp, sequence (P0DXN6 whole entry partner): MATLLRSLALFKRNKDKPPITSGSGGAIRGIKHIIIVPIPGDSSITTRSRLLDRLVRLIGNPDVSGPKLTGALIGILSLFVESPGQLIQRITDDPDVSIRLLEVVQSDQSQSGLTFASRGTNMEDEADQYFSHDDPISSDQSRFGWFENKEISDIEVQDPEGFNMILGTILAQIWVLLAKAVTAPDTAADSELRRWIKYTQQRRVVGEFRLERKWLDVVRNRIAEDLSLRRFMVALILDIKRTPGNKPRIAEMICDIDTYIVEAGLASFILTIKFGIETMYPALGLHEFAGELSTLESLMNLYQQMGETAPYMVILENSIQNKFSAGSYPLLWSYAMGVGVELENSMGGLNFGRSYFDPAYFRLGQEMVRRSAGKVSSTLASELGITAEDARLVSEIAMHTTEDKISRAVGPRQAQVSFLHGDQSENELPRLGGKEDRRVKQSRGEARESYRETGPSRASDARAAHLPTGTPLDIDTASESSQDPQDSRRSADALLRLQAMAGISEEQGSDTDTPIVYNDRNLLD
structure (smiles),measurement,setting,value
COc1ccc(-n2c(SC(C)C(=O)Nc3ccc(C)cc3Cl)nc3ccccc32)cc1 (stereo not drawn) [JMN3-003],change of the tolerated dose,MeV-Alaska [1],only marginal increases in the tolerated dose
same,DNA content of treated cells by flow cytometry,HeLa cells,accumulation of cells in a single population with 2N DNA content
same,drop in relative viral antigenome levels,Influenza A/WSN [2],> 100 fold
same,reduction in genome copies of released progeny virions,Influenza A/WSN [2],"> 10,000 fold"
same,metabolic activity of primary human PBMCs,PBMCs,unaffected
same,CC50 at 24 h,[3],> 75000 nM
same,CC50 at 24 h,[4],> 75000 nM
same,activity against vaccinia virus,vaccinia virus,to a lesser degree
same,EC50,"[5]; range depending on the target virus, read-out: active concentrations (anti-myxovirus activity)",10 to 80 nM
same,EC50,"[5]; unidentified influenza virus, read-out: average EC50 concentrations",~40 nM
same,"expression of virus-encoded proteins, paramyxovirus infection",MeV-Alaska [6],fully blocked
same,CC50 at 24 h,[7],> 75000 nM
same,concentration at which luciferase reporter expression was fully blocked,MeV RdRp,approximately 100 nM
same,inhibitory effect after cell pre-treatment and wash-out,MeV-Alaska [8],could not detect any substantial inhibitory effect
same,EC50,"MeV (Alaska); PBMC, hPBMC from a mixed pool of healthy donors, four-parameter non-linear regression, read-out: EC50, MeV-Alaska grown on human PBMCs",90 ± 50 nM
same,EC50,"MeV (Alaska); read-out: EC50, MeV (Alaska)",30 ± 20 nM
same,EC50,"MeV (Alaska); Vero-Slam, comparison curve of figure 2, read-out: EC50, MeV-Alaska grown on Vero-Slam cells",40 ± 20 nM
same,EC50,RSV (Long),70 ± 10 nM
same,"expression of virus-encoded proteins, orthomyxovirus infection",Influenza A/WSN [9],fully blocked
same,CC50 at 24 h,[10],> 75000 nM
same,inhibition profile in time-of-addition experiment,MeV-Alaska [11],very closely resembled the profile of the AS-136A RdRp blocker class
